Where two headings read alike, the source gives them in different places.
Experiments:
Lambsquarters [1] = conditions: 21 DAT, spray volume 200 l/ha
Description: (§1) The results shown in Table 3 were obtained by applying the mixture of dicamba technical acid (87%) and the formulation aid to two fields infected with various annual and perennial weeds (indicated in Table 3). The experiments were conducted between the period of September 1998 to August 2000.

Pig Weed [2] = conditions: 21 DAT, spray volume 200 l/ha
Description: as §1

[3] = system: various annual and perennial weeds; conditions: 21 DAT; spray volume of 200 l/ha; different rates; two fields
Description: as §1

Canada Thistle = assay: Field control of broad-spectrum weeds with glyphosate technical acid + formulation aid (Example 2); assay type: in vivo; conditions: 21 DAT
Description: (§2) Prior to any preparation all spray-mixing and application equipment were cleaned thoroughly by observing cleaning directions provided on the agrochemical labeling and accompanying materials provided by the maker. Half of the required water was placed in a spray tank. A required amount of the formulation aid was added in the spray tank for the required rate of glyphosate application as indicated in Table 1. […] Mixing was continued and remainder of the water was added to the spray tank. Mixing was: continued for another 5-10 minutes. The ready to use herbicide and formulation aid mixture was applied by spraying at the required rate.
(§3) The formulation aid tested in this example contained about 21.5% by weight aromatic hydrocarbon distillate, about 3.1% by weight 2N-octanol, about 5.7% by weight oleyl-cetyl alcohol, about 3.1% by weight polyoxyethylene (8) nonylphenolethin, about 33.3% by weight polyoxyalkylated fatty alcohol, and about 33.3% by weight ethoxylated tallow amine blend.

Catnip = assay: as above; assay type: in vivo; conditions: 21 DAT
Description: as §2, §3

Dandelions = assay: as above; assay type: in vivo; conditions: 21 DAT
Description: as §2, §3

Lambsquarters [4] = assay: as above; assay type: in vivo; conditions: 21 DAT
Description: as §2, §3

Pig Weed [5] = assay: as above; assay type: in vivo; conditions: 21 DAT
Description: as §2, §3

Quackgrass = assay: as above; assay type: in vivo; conditions: 21 DAT
Description: as §2, §3

Sow Thistle = assay: as above; assay type: in vivo; conditions: 21 DAT
Description: as §2, §3

Annual grasses = assay: as above; assay type: in vivo, foxtails, annual bluegrass, crabgrass, witchgrass; conditions: 21 DAT
Description: as §2, §3

[6] = system: various annual and perennial weeds; assay: Field weed control overall, glyphosate technical acid (Example 2); assay type: in vivo; conditions: 21 DAT; different rates; 10 fields
Description: as §2, §3

[7] = Dicamba 0.140 Kg/ha + formulation aid 1.0 L/ha or + water
[8] = Dicamba 0.280 Kg/ha + formulation aid 1.0 L/ha or + water
[9] = glyphosate technical acid (95%) 0.24 Kg or l/ha + formulation aid 0.5 l/ha or + water
[10] = glyphosate technical acid (95%) 0.53 Kg or l/ha + formulation aid 0.5 l/ha or + water
[11] = glyphosate technical acid (95%) 0.94 Kg or l/ha + formulation aid 0.9 l/ha or + water

## COc1c(Cl)ccc(Cl)c1C(=O)O [Dicamba + water, 3,6-dichloro-2-methoxybenozic acid]
Lambsquarters [1]; [7]
  Control of Lambsquarters: 0%
Lambsquarters [1]; [8]
  Control of Lambsquarters: 0%
Pig Weed [2]; [7]
  Control of Pig Weed: 0%
Pig Weed [2]; [8]
  Control of Pig Weed: 0%
[3]
  weed control (in words): No weed control

## O=C(O)CNCP(=O)(O)O [Glyphosate + water, N-phosphonomethylglycine]
Canada Thistle; [9]
  Control of Canada Thistle: 0%
Canada Thistle; [10]
  Control of Canada Thistle: 0%
Canada Thistle; [11]
  Control of Canada Thistle: 0%
Catnip; [9]
  Control of Catnip: 0%
Catnip; [10]
  Control of Catnip: 0%
Catnip; [11]
  Control of Catnip: 0%
Dandelions; [9]
  Control of Dandelions: 0%
Dandelions; [10]
  Control of Dandelions: 0%
Dandelions; [11]
  Control of Dandelions: 0%
Lambsquarters [4]; [9]
  Control of Lambsquarters: 0%
Lambsquarters [4]; [10]
  Control of Lambsquarters: 0%
Lambsquarters [4]; [11]
  Control of Lambsquarters: 0%
Pig Weed [5]; [9]
  Control of Pig Weed: 0%
Pig Weed [5]; [10]
  Control of Pig Weed: 0%
Pig Weed [5]; [11]
  Control of Pig Weed: 0%
Quackgrass; [9]
  Control of Quackgrass: 0%
Quackgrass; [10]
  Control of Quackgrass: 0%
Quackgrass; [11]
  Control of Quackgrass: 0%
Sow Thistle; [9]
  Control of Sow Thistle: 0%
Sow Thistle; [10]
  Control of Sow Thistle: 0%
Sow Thistle; [11]
  Control of Sow Thistle: 0%
Annual grasses; [9]
  Control of Annual grasses: 0%
Annual grasses; [10]
  Control of Annual grasses: 0%
Annual grasses; [11]
  Control of Annual grasses: 0%
[6]
  weed control (in words): No weed control
